The text below walks through data of patent US20100240758A1, “EXTERNAL PREPARATION FOR PERCUTANEOUS ADMINISTRATION CONTAINING NONSTEROIDAL ANTI-INFLAMMATORY ANALGESIC” (Hisamitsu Pharmaceutical Co., Inc., priority 2003, published 2010).

Molecules are shown by their SMILES.

Experiment [1] concerns Balb/c mouse. Nature of the experiment: In vivo phototoxicity test (auricular light irradiation, ear swelling due to ketoprofen). The note with it: UVA 40 J/cm^2, 24 hours after irradiation, toward KP group. As to the method:
The experiment below was carried out by partially refining the method of Gerberick et al., (Food Chem. Toxicol., 27, 813-819 (1989)). That is, a Balb/c mouse (female, 9 to 11 weeks old) was used as a test animal, each of the test substances {4-tert-butyl-4′-methoxydibenzoylmethane (BM-DBM), 2-ethylhexyl dimethoxybenzylidenedioxoimidazolidine propionate (DB-DIH), terephthalylidene-3,3′-dicamphor-10,10′-disulfonic acid (TP-DCS), n-hexyl 2-(4-diethylamino-2-hydroxybenzoyl)benzoate (DHB-BH)} and 2% ketoprofen (KP) were dissolved in ethanol and applied to the auricle, and it was irradiated with UVA at 40 J/cm^2. 24 hours after UVA irradiation, the ear thickness was measured, and an increase from the ear thickness prior to the start of the test was calculated. The effect in suppressing phototoxicity due to KP was evaluated for each test substance using as an index the degree of suppression of the increase in ear thickness due to KP, that is, the ear swelling suppression rate (%) toward the KP group.

The test system of experiment [2] is Balb/c mouse. Nature of the experiment: In vivo photoallergy test 1 (refined Murine Local Lymph Node Assay, 3H-TdR uptake). The note with it: UVA 20 J/cm^2, 3 days, toward KP group. As to the method: A KP photoallergy detection test was carried out by refining the Murine Local Lymph Node Assay (LLNA) proposed by the Interagency Coordinating Committee on the Validation of Alternative Methods (ICCVAM). That is, a Balb/c mouse (female, 8 to 12 weeks old) was used as a test animal, a solution of a test substance {4-tert-butyl-4′-methoxydibenzoylmethane (BM-DBM)} and 2% ketoprofen (KP) prepared in acetone—olive oil (4:1, v/v) was applied to the back of the pinna, and it was irradiated with UVA at 20 J/cm^2. This sensitization induction treatment was carried out for 3 days in succession. 5 days after starting the sensitization, 20 μCi per mouse of ^3H-methyl thymidine (^3H-TdR)/PBS solution was injected into the tail vein, and 5 hours later an auricular lymph node was removed. The removed lymph node was made into a single lymph cell suspension using a cell strainer, and after washing twice with PBS was then allowed to stand in a 5% trichloroacetic acid (TCA) solution at 4° C. overnight to thus make DNA precipitate. After the precipitate was suspended in 1 mL of 5% TCA solution, the radioactivity was measured using a liquid scintillation counter. The effect of the test substance in suppressing photoallergy due to KP was evaluated using as an index the degree of suppression of the increase in ^3H-TdR uptake by KP, that is, the ^3H-TdR uptake suppression rate (%) toward the KP group.

Experiment [3] deals with Hartley white female guinea pig. Nature of the experiment: In vivo photoallergy test 2 (skin photoallergy test, Adjuvant and Strip Method). The note with it: 2% KP + 2% test substance, toward KP group. As to the method:
A skin photoallergy test using a guinea pig was carried out by partially refining the Adjuvant and Strip Method of Sato et al., (The Nishinihon Journal of Dermatology, 42, 831-837 (1980)). That is, the back of the neck of a Hartley white female guinea pig (a group of 8 animals) was depilated, an adjuvant was administered to four corners of 2×2 cm, a 2% ethanol solution of ketoprofen (KP) or a solution of 2% KP+2% test substance {4-tert-butyl-4′-methoxydibenzoylmethane ([…])} was openly applied to the 2×2 cm area, and 1 hour later it was irradiated with UVA (10 J/cm^2). This sensitization induction treatment was carried out for 5 days in succession. 3 weeks after starting the sensitization, the back of the hip was depilated, the same solution as for the sensitization was openly applied to a 2×2 cm area, and 1 hour later it was irradiated with UVA (10 J/cm^2) to thus carry out a photoinduction. A skin reaction 24 and 48 hours after the irradiation was evaluated in accordance with the above-mentioned criteria of Sato et al. The effect of BM-DBM in suppressing photoallergy due to KP was evaluated by erythema and swelling suppression rates (%) toward the KP group.

Where [4] appears, read: test substance 0.5% with 2% KP in ethanol on auricle.

Regarding `COc1ccc(C(=O)CC(=O)c2ccc(C(C)(C)C)cc2)cc1` [BM-DBM, 4-tert-butyl-4′-methoxydibenzoylmethane], the “Ear Swelling Suppression Rate (%)” value worked out at 41% in experiment [1] (test substance 0.1% with 2% KP in ethanol on auricle), 81% in experiment [1] (test substance 0.3% with 2% KP in ethanol on auricle) and 98% in experiment [1] (setting [4]). Further, the “^3H-TdR Uptake Suppression Rate (%)” value in experiment [2] (BM-DBM 0.06% with 2% KP in acetone-olive oil) worked out at 30%; in experiment [2] (BM-DBM 0.13% with 2% KP in acetone-olive oil), 51%; in experiment [2] (BM-DBM 0.25% with 2% KP in acetone-olive oil) it was 24%; in experiment [2] (BM-DBM 0.50% with 2% KP in acetone-olive oil) it was 94%; in experiment [2] (BM-DBM 1.00% with 2% KP in acetone-olive oil), 99%. Also, the “Erythema/Swelling Suppression Rate (%) After 24 Hr” value in experiment [3] (UVA 10 J/cm^2, 24 hours after photoinduction irradiation) worked out at 69%. Besides, the “Erythema/Swelling Suppression Rate (%) After 48 Hr” value in experiment [3] (UVA 10 J/cm^2, 48 hours after photoinduction irradiation) came out at 74%.
Consider `CCCCC(CC)COC(=O)CCN1C(=O)NC(=Cc2ccc(OC)c(OC)c2)C1=O` (stereo not shown) [DB-DIH, 2-ethylhexyl dimethoxybenzylidenedioxoimidazolidine propionate], for which the “Ear Swelling Suppression Rate (%)” value in experiment [1] (setting [4]) came out at 34%.
Still for that read-out and setting: the same measure for `CCCCCCOC(=O)c1ccccc1C(=O)c1ccc(N(CC)CC)cc1O` [DHB-BH, n-hexyl 2-(4-diethylamino-2-hydroxybenzoyl)benzoate]: 84%.
Still for that read-out and setting: to `CC1(C)C2CCC1(CS(=O)(=O)O)C(=O)/C2=C\c1ccc(/C=C2/C(=O)C3(CS(=O)(=O)O)CCC2C3(C)C)cc1` [TP-DCS, terephthalylidene-3,3′-dicamphor-10,10′-disulfonic acid] belongs 65%.
